{"source": "ChEMBL document CHEMBL1201862", "about": "“PubChem BioAssay data set” (2004)", "test_in_all_cases": "DTP human tumour cell line panel, 48 h", "key": {"786-0": {"system": "786-0"}, "A498": {"system": "A498"}, "A549": {"system": "A549"}, "ACHN": {"system": "ACHN"}, "BT-549": {"system": "BT-549"}, "CAKI-1": {"system": "CAKI-1"}, "CCRF-CEM": {"system": "CCRF-CEM"}, "COLO 205": {"system": "COLO 205"}, "DU-145": {"system": "DU-145"}, "EKVX": {"system": "EKVX"}, "HCC 2998": {"system": "HCC 2998"}, "HCT-116": {"system": "HCT-116"}, "HCT-15": {"system": "HCT-15"}, "HL-60": {"system": "HL-60"}, "HOP-62": {"system": "HOP-62"}, "HOP-92": {"system": "HOP-92"}, "HT-29": {"system": "HT-29"}, "Hs-578T": {"system": "Hs-578T"}, "IGROV-1": {"system": "IGROV-1"}, "K562": {"system": "K562"}, "KM12": {"system": "KM12"}, "LOX IMVI": {"system": "LOX IMVI"}, "M14": {"system": "M14"}, "MCF7": {"system": "MCF7"}, "MDA-MB-231": {"system": "MDA-MB-231"}, "MDA-MB-435": {"system": "MDA-MB-435"}, "MDA-N": {"system": "MDA-N"}, "MOLT-4": {"system": "MOLT-4"}, "Malme-3M": {"system": "Malme-3M"}, "NCI-H226": {"system": "NCI-H226"}, "NCI-H23": {"system": "NCI-H23"}, "NCI-H460": {"system": "NCI-H460"}, "NCI-H522": {"system": "NCI-H522"}, "NCI/ADR-RES": {"system": "NCI/ADR-RES"}, "OVCAR-3": {"system": "OVCAR-3"}, "OVCAR-4": {"system": "OVCAR-4"}, "OVCAR-5": {"system": "OVCAR-5"}, "OVCAR-8": {"system": "OVCAR-8"}, "PC-3": {"system": "PC-3"}, "RPMI-8226": {"system": "RPMI-8226"}, "RXF 393": {"system": "RXF 393"}, "SF-268": {"system": "SF-268"}, "SF-295": {"system": "SF-295"}, "SF-539": {"system": "SF-539"}, "SK-MEL-28": {"system": "SK-MEL-28"}, "SK-MEL-2": {"system": "SK-MEL-2"}, "SK-MEL-5": {"system": "SK-MEL-5"}, "SK-OV-3": {"system": "SK-OV-3"}, "SN12C": {"system": "SN12C"}, "SNB-19": {"system": "SNB-19"}, "SNB-75": {"system": "SNB-75"}, "SR": {"system": "SR"}, "SW-620": {"system": "SW-620"}, "T47D": {"system": "T47D"}, "TK-10": {"system": "TK-10"}, "U-251": {"system": "U-251"}, "UACC-257": {"system": "UACC-257"}, "UACC-62": {"system": "UACC-62"}, "UO-31": {"system": "UO-31"}}, "note": "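Growth conditions: 96-well plates. Treatment: test compound, 48 hours, 5 concentrations. Analysis: linear interpolation between bracketing concentrations; unreached endpoints set to highest concentration. At the GI50, growth is halved.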 Activity calls are given as the source filed them. Rule as the data show it: active = GI50 up to about 1.1 µM and inactive = higher.", "data": [{"smiles": "COc1ccc(Nc2c(C#N)c3n(c4ccccc24)c2ccccc2[n+]3C)cc1OC", "values": [{"measurement": "GI50", "setting": "786-0", "value": "2120 nM (inactive)"}, {"measurement": "GI50", "setting": "A498", "value": "4310 nM (inactive)"}, {"measurement": "GI50", "setting": "A549", "value": "3030 nM (inactive)"}, {"measurement": "GI50", "setting": "ACHN", "value": "1960 nM (inactive)"}, {"measurement": "GI50", "setting": "BT-549", "value": "7330 nM (inactive)"}, {"measurement": "GI50", "setting": "CAKI-1", "value": "1930 nM (inactive)"}, {"measurement": "GI50", "setting": "CCRF-CEM", "value": "> 100000 nM (inactive)"}, {"measurement": "GI50", "setting": "COLO 205", "value": "2190 nM (inactive)"}, {"measurement": "GI50", "setting": "DU-145", "value": "2810 nM (inactive)"}, {"measurement": "GI50", "setting": "EKVX", "value": "2930 nM (inactive)"}, {"measurement": "GI50", "setting": "HCC 2998", "value": "4170 nM (inactive)"}, {"measurement": "GI50", "setting": "HCT-116", "value": "1610 nM (inactive)"}, {"measurement": "GI50", "setting": "HCT-15", "value": 1880, "unit": "nM"}, {"measurement": "GI50", "setting": "HL-60", "value": "3840 nM (inactive)"}, {"measurement": "GI50", "setting": "HOP-62", "value": "3240 nM (inactive)"}, {"measurement": "GI50", "setting": "HOP-92", "value": "9440 nM (inactive)"}, {"measurement": "GI50", "setting": "HT-29", "value": "3130 nM (inactive)"}, {"measurement": "GI50", "setting": "Hs-578T", "value": "2860 nM (inactive)"}, {"measurement": "GI50", "setting": "IGROV-1", "value": "3580 nM (inactive)"}, {"measurement": "GI50", "setting": "K562", "value": "2330 nM (inactive)"}, {"measurement": "GI50", "setting": "KM12", "value": "3980 nM (inactive)"}, {"measurement": "GI50", "setting": "LOX IMVI", "value": "1900 nM (inactive)"}, {"measurement": "GI50", "setting": "M14", "value": "2940 nM (inactive)"}, {"measurement": "GI50", "setting": "MCF7", "value": "1990 nM (inactive)"}, {"measurement": "GI50", "setting": "MDA-MB-231", "value": "1730 nM (inactive)"}, {"measurement": "GI50", "setting": "MDA-MB-435", "value": "3730 nM (inactive)"}, {"measurement": "GI50", "setting": "MDA-N", "value": "2700 nM (inactive)"}, {"measurement": "GI50", "setting": "MOLT-4", "value": "1680 nM (inactive)"}, {"measurement": "GI50", "setting": "Malme-3M", "value": "3820 nM (inactive)"}, {"measurement": "GI50", "setting": "NCI-H226", "value": "3050 nM (inactive)"}, {"measurement": "GI50", "setting": "NCI-H23", "value": "2940 nM (inactive)"}, {"measurement": "GI50", "setting": "NCI-H460", "value": "1930 nM (inactive)"}, {"measurement": "GI50", "setting": "NCI-H522", "value": "3160 nM (inactive)"}, {"measurement": "GI50", "setting": "NCI/ADR-RES", "value": "2710 nM (inactive)"}, {"measurement": "GI50", "setting": "OVCAR-3", "value": "3520 nM (inactive)"}, {"measurement": "GI50", "setting": "OVCAR-4", "value": "4680 nM (inactive)"}, {"measurement": "GI50", "setting": "OVCAR-5", "value": "2250 nM (inactive)"}, {"measurement": "GI50", "setting": "OVCAR-8", "value": "1670 nM (inactive)"}, {"measurement": "GI50", "setting": "PC-3", "value": "2330 nM (inactive)"}, {"measurement": "GI50", "setting": "RPMI-8226", "value": "1980 nM (inactive)"}, {"measurement": "GI50", "setting": "RXF 393", "value": "2820 nM (inactive)"}, {"measurement": "GI50", "setting": "SF-268", "value": "1760 nM (inactive)"}, {"measurement": "GI50", "setting": "SF-295", "value": "2770 nM (inactive)"}, {"measurement": "GI50", "setting": "SF-539", "value": "1840 nM (inactive)"}, {"measurement": "GI50", "setting": "SK-MEL-28", "value": "4430 nM (inactive)"}, {"measurement": "GI50", "setting": "SK-MEL-2", "value": "3860 nM (inactive)"}, {"measurement": "GI50", "setting": "SK-MEL-5", "value": "3490 nM (inactive)"}, {"measurement": "GI50", "setting": "SK-OV-3", "value": "5140 nM (inactive)"}, {"measurement": "GI50", "setting": "SN12C", "value": "1270 nM (inactive)"}, {"measurement": "GI50", "setting": "SNB-19", "value": "3920 nM (inactive)"}, {"measurement": "GI50", "setting": "SNB-75", "value": "3430 nM (inactive)"}, {"measurement": "GI50", "setting": "SR", "value": "6460 nM (inactive)"}, {"measurement": "GI50", "setting": "SW-620", "value": "2440 nM (inactive)"}, {"measurement": "GI50", "setting": "T47D", "value": "6050 nM (inactive)"}, {"measurement": "GI50", "setting": "TK-10", "value": "2560 nM (inactive)"}, {"measurement": "GI50", "setting": "U-251", "value": "2700 nM (inactive)"}, {"measurement": "GI50", "setting": "UACC-257", "value": "3780 nM (inactive)"}, {"measurement": "GI50", "setting": "UACC-62", "value": "3150 nM (inactive)"}, {"measurement": "GI50", "setting": "UO-31", "value": "1300 nM (inactive)"}]}]}
